A short description of data set [1]: Solubility assay (pH 7.4 pION buffer, UV). The class given is physicochemical. As to conditions: pH 7.4 pION buffer, aqueous buffer, kinetic from dmso stock; pH 7.4 buffer, 18 hours incubation; read-out: Avg. Solubility (μg/mL) at pH 7.4. As to the method: 5 μL of 20 mM DMSO stock from the stock plate was added to the reaction deep well plate containing 495 μL of pH 7.4 pION buffer (including DMSO control) respectively and the samples were mixed and incubated for 18 hours. The plate was sealed well during the incubation process. The DMSO content in the sample was <1.0%. The concentration in deep well plates was 200 μM. 4 μL of 20 mM stock (including DMSO control) was added to 996 μL of acetonitrile to prepare the working stock plate. 75 μL of working stock was added to 75 μL of blank buffer and read on spectrophotometer as reference plate at 240 nm. At the end of the incubation period, 100 μL of sample from storage plate was vacuum filtered using a filter plate. This step wets the filters and the filtrate was discarded. Another 200 μL of the sample from deep well plate was vacuum filtered in to a new filter collection plate. 75 μL of the filtrate from the filter collection plate was transferred to a UV sample plate. 75 μL of acetonitrile was added to this UV plate. The solution was mixed and the spectrum was read using the UV spectrophotometer at 240 nm. Plates were read on spectramax using SoftMax Pro software version 5.3.

Data set [2] deals with T1, recombinant human TopI (HTopI) (Homo sapiens, UniProt P11387).
T1 sequence (P11387 1-765): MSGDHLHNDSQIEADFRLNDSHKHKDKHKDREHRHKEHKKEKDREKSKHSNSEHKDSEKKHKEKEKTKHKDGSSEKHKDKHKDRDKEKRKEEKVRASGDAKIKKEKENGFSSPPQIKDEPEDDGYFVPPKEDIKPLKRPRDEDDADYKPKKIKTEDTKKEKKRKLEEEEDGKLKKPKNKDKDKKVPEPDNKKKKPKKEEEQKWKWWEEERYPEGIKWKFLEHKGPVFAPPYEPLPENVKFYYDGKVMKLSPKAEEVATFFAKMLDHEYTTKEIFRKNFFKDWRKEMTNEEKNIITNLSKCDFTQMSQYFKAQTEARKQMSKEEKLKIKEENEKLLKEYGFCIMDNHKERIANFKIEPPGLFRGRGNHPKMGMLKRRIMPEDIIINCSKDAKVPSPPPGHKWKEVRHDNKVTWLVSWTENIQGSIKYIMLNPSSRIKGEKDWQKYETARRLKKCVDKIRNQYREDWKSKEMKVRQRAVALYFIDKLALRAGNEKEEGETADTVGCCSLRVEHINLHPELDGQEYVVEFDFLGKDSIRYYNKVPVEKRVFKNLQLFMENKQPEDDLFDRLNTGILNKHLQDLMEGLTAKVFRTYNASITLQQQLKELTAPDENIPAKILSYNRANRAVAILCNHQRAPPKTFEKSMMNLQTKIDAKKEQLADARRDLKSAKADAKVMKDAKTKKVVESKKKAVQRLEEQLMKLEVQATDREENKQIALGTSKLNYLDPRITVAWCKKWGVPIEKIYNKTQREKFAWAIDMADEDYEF
Description: Gel based plasmid DNA relaxation assay with recombinant TopI (in vitro). In kind it is biochemical. As to conditions: recombinant human TopI, plasmid DNA relaxation. As to the method: Human ToPI Inhibition in Plasmid DNA Relaxation Assays with Recombinant TopI (In Vitro) or MCF7 Cell Lysates (Ex Vivo)
Relaxation of supercoiled pBSSK(^+) DNA with recombinant human TopI (HTopI) at a molar ratio of 3:1 at 37° C. for 30 minutes was performed

Data set [3] is described as follows: Lipophilicity assay (octanol/buffer Log D). As to conditions: n-octanol/sodium phosphate buffer, pH 7.4.
Description: 1.56 g NaH2PO4.2H2O was dissolved in 0.5 L water in a 1 L beaker. After adjusting pH to 7.4 using NaOH solution, the volume was made up to 1 L. Equal volumes of sodium phosphate buffer (10 mM, pH 7.4) and n-octanol were added to a separation funnel and mixed thoroughly by shaking and inverting the funnel several times. The two layers were allowed to separate for 2 days and then dispensed in two separate glass bottles. 10 mM stock solution was prepared in 100% DMSO and stored at 4° C. 500 μL of organic phase (1-octanol) was added to each well of a 2 mL deep well plate, followed by 500 μL of buffer and 15 μL of test substance was added. The plate was vortexed for 1 hr on a plate shaker at 1200 rpm. After incubation, the samples were allowed to equilibrate for 20 min and then centrifuged at 4000 rpm for 30 min for complete phase separation and analysed by LC-UV.
Log D=Log(area of octanol/area of buffer)
Mean, SD and % CV for each set of triplicates were calculated

Structures are written as SMILES. pIC50: −log10 of the molar value. Converted amounts (≈) assume the structure as drawn.

Turning to `Nc1ccc(-c2ccc3ncc(-c4nnco4)c(NCCCn4ccnc4)c3c2)cn1` [Compound 24, N-(3-(1H-imidazol-1-yl)propyl)-6-(6-aminopyridin-3-yl)-3-(1,3,4-oxadiazol-2-yl)quinolin-4-amine], the solubility at 18 h in data set [1] was 27.2 µg/mL (≈ 66 µM). In addition, the negative logarithm of the IC50 (pIC50) in data set [2] was 7.68. In data set [3], the logD came to 3.51.

Values taken from patent US20210246128A1, “BICYCLE TOPOISOMERASE I INHIBITING COMPOUNDS, PROCESS FOR PREPARATION AND USE THEREOF” (Council of Scientific & Industrial Research, priority 2018, published 2021).
